Assay results as given in patent publication US10617656B2, “Methods of increasing the cytotoxicity of chemotherapeutic agents with multisubstrate inhibitors of histone, protein-Lys, polyamine acetylation, and polyamine metabolism” (Vanderbilt University, priority 2010, dated 2020).

Experiments:
[1] = target: T1, p300 catalytic domain (Homo sapiens, UniProt Q09472); experiment: 96-well fluorescent HAT assay kit (Active Motif), H3 peptide (5-23); format: biochemical
T1 construct: the catalytic domain of p300(965-1810); purchased Active Motif, Carlsbad, Calif
T1 sequence (Q09472 965-1810): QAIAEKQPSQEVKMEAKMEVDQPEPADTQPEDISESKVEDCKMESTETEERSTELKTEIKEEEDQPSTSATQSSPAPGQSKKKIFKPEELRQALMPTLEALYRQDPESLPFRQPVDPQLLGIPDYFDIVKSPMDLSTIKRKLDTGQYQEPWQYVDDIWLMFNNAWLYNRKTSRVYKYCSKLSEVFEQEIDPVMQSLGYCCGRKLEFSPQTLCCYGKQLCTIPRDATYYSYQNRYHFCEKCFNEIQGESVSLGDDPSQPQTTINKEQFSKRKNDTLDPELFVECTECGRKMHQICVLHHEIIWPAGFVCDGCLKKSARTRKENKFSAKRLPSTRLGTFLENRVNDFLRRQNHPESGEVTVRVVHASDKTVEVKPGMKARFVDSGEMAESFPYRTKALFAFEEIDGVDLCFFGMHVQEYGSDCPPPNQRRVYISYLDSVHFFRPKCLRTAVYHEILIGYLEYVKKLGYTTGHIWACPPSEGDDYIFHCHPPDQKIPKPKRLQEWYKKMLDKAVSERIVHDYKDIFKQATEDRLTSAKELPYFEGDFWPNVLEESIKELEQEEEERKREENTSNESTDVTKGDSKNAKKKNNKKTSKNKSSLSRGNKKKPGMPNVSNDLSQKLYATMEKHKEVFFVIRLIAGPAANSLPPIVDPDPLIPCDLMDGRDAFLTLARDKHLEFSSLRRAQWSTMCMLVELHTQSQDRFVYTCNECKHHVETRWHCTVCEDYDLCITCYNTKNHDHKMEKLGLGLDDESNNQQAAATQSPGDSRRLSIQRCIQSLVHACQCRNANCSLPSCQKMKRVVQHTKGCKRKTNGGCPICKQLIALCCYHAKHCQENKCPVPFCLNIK
Method: (A) Structures of compound 1a (spermidine CoA), and the acetylated side chain of a lysine residue of a polypeptide chain. (B) Inhibition of p300 acetylating activity as a function of 1a concentration. The catalytic domain of recombinant p300 (1284-1660) was assayed under steady state conditions using an N-terminal acetylated histone H4 peptide substrate, Ac-H4(1-19)-NH2. Closed circles represent experimental data points; plain line represents theoretical profile based on data reduction software (Prism) using a one site inhibition model. (C) In vitro assay of p300 activity using a 96-well assay kit (ActivMotif) and an H3 peptide substrate (5-23), according to manufacturer's instructions. Bars represent average of duplicates. […]
Reactions were set up in duplicate following the protocol supplied by the kit. […] Activity is measured in fluorescence units. […]
Assays were performed using the fluorescent HAT assay kit (Active Motif, Carlsbad, Calif.), an H3 peptide as substrate (residues 5-23), the p300 catalytic domain as enzyme, and 50 μM inhibitor in duplicate, according to the manufacturer's instructions. […] The reaction product, CoASH, was detected spectrophotometrically by reaction with 5,5′-dithiobis-2-nitrobenzoic acid (DTNB). Assays were carried out at 30° C. for 30 minutes, conditions which had previously been determined in kinetic assays to sufficient to achieve steady state.

[2] = test system: H358 lung cancer cells; format: cell-based; settings: 3 days
Method: Control cells were left untreated. […] Control cells were left untreated.
Cells were given fresh inhibitor on the first, second, and third days of treatment and viability was measured on the 4th day (i.e. 3 days post start of treatment). […]
(A) Structure of Spd-3a. (B) Western analysis of histone H3K9-acetylation and total histone H3, measured in control, untreated H358 lung cancer cells “C” or in H358 cells incubated 12 hours in the presence of 50 μM Spd-2a or Spd-3a. Each lane represents 60 μg cellular protein. (C) [3H]-thymidine incorporation (counts per minute) into DNA of H358 cells during a 6 hour pulse beginning at 42 hours post-start of treatment. Treatments were as follows (bars 1-6 left to right): (1) control: no treatment; (2) CPT alone: 5 nM 18 hours; (3) 3a alone: 50 μM; (4-6) 3a+CPT: CPT (5 nm, 18 hours)+3a at indicated dose. After 18 hours, CPT was removed and medium was replaced with fresh medium containing Spd-3a at the indicated dose. Each bar represents the average of triplicates. (D) 3-day 96-well viability assay of H358 cells grown in the presence of increasing amounts of Spd-2a or Spd-3a, with or without CPT (5 nM 18 hours). […] Each data point represents the average of three wells.
Date of exp: Jul. […] Date of exp: Sep.
Cells were plated in 96-well plates at 2000 cells per well and treated with the indicated doses of spd-3a. Cell viability was measured by the MTS assay 3 days later.
DLD-1 cells or H358 cells were plated in 96-well plates at 2000 cells per well and treated with the indicated doses of (A) spm-3 or (B) spm-2. (C) Cell viability was measured by the MTS assay 3 days later. Similar experiment using GT41 fibroblasts with spm2 or spm 3. Each assay point represents an average of duplicates. […]

inhibition at 50 µM ([1]; 50 μM inhibitor, Active Motif 96-well assay, FIG. 9, read-out: inhibition of incorporation of acetyl groups into the H4 peptide substrate relative to untreated wells)	inhibition of p300 HAT activity ([1]; FIG. 24, p300(965-1810), H3 peptide)	Structure (SMILES)	suppression of 3 day cell viability ([2]; human)	suppression of cancer cell growth and viability ([2]; spm single agent)
88%		CC(C)(COP(=O)(O)OP(=O)(O)OC[C@H]1O[C@@H](n2cnc3c(N)ncnc32)[C@H](O)[C@@H]1OP(=O)(O)O)[C@@H](O)C(=O)NCCC(=O)NCCSCC(=O)NCCCNCCCCN [1a, spermidine[N1]-CoA]	60-70%	
	HAT inhibitors	CC(=O)NCCSCC(=O)NCCCNCCCCNCCCN [spm-3]		effective as single agents
